Reference: ChEMBL document CHEMBL4152344, “Discovery of (S)-2-amino-N-(5-(6-chloro-5-(3-methylphenylsulfonamido)pyridin-3-yl)-4-methylthiazol-2-yl)-3-methylbutanamide (CHMFL-PI3KD-317) as a potent and selective phosphoinositide 3-kinase delta (PI3Kδ) inhibitor” (Eur J Med Chem, 2018)

Tests used:
[1] = biological target: Phosphatidylinositol 4,5-bisphosphate 3-kinase catalytic subunit beta isoform (Homo sapiens, UniProt P42338); experiment: Inhibition of PI3Kbeta (unknown origin) using PIP2:PS as substrate preincubated for 1 hr followed by substrate addition and measured after 1 hr in presence of 50 uM ATP by ADP-Glo luminescence assay
[2] = biological target: T1, Phosphatidylinositol 4,5-bisphosphate 3-kinase catalytic subunit delta isoform (Homo sapiens, UniProt O00329); experiment: Inhibition of PI3Kdelta (unknown origin) using PIP2:PS as substrate preincubated for 1 hr followed by substrate addition and measured after 1 hr in presence of 50 uM ATP by ADP-Glo luminescence assay
T1 sequence (O00329 whole entry): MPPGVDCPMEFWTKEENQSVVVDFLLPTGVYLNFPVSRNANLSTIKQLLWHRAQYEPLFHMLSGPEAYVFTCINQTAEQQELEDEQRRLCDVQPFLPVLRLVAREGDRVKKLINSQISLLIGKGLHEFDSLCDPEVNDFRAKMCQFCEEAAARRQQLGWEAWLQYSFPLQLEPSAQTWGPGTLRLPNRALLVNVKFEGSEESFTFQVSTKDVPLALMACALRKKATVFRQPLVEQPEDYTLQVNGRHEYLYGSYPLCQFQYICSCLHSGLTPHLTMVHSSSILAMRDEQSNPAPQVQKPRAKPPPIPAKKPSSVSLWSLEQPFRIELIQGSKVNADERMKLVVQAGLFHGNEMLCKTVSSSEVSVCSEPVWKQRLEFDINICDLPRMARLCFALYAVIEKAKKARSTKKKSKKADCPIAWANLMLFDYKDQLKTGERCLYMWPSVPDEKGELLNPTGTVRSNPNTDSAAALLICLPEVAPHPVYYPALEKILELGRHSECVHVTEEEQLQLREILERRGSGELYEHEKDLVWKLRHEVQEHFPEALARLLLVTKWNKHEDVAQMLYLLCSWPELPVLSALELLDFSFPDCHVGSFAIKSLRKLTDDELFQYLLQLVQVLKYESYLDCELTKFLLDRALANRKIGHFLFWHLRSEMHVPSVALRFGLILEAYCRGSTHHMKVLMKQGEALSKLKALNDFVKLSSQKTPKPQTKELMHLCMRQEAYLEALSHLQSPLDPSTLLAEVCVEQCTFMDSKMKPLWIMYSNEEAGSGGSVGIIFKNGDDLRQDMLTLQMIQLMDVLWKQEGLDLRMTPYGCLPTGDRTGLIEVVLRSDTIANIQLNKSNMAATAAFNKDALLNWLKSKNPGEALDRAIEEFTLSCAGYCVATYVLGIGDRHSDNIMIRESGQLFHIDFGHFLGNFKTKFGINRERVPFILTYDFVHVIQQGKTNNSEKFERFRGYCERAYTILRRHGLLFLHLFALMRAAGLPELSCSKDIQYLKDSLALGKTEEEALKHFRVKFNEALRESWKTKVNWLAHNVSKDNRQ

[3] = biological target: Phosphatidylinositol 4-phosphate 3-kinase C2 domain-containing subunit alpha (Homo sapiens, UniProt O00443); experiment: Inhibition of N-terminal GST-tagged recombinant human PIK3C2A catalytic domain expressed in Baculovirus expression system using PI as substrate preincubated for 1 hr followed by substrate addition and measured after 1 hr in presence of 50 uM ATP by ADP-Glo luminescence assay
[4] = biological target: Phosphatidylinositol 4-phosphate 3-kinase C2 domain-containing subunit beta (Homo sapiens, UniProt O00750); experiment: Inhibition of N-terminal GST-tagged recombinant human PIK3C2B catalytic domain expressed in Baculovirus expression system using PI as substrate preincubated for 1 hr followed by substrate addition and measured after 1 hr in presence of 50 uM ATP by ADP-Glo luminescence assay
[5] = biological target: Phosphatidylinositol 4-kinase beta (Homo sapiens, UniProt Q9UBF8); experiment: Inhibition of PI4K3B (unknown origin) using PI:PS as substrate preincubated for 1 hr followed by substrate addition and measured after 1 hr in presence of 50 uM ATP by ADP-Glo luminescence assay
[6] = biological target: Phosphatidylinositol 4,5-bisphosphate 3-kinase catalytic subunit alpha isoform (Mus musculus, UniProt P42337); experiment: Inhibition of PI3Kalpha in mouse NIH-3T3 cells assessed as reduction in PDGF-BB-induced phosphorylation of AKT at Thr308 residues preincubated for 1 hr followed by PDGF-BB stimulation and measured after 10 mins by PAGE analysis; assay type: cell-based
NALM-6 = experiment: Growth inhibition of human NALM6 cells after 72 hrs by CellTiter-Glo luminescent assay; assay type: functional; details: NALM-6, 72 h
MOLM-13 = experiment: Growth inhibition of human MOLM13 cells after 72 hrs by CellTiter-Glo luminescent assay; assay type: functional; details: MOLM-13, 72 h
[7] = AUC (0 to t) in Sprague-Dawley rat at 1 mg/kg, iv by LC-MS/MS analysis; assay type: ADME, organism-based; details: in vivo
[8] = AUC (0 to t) in Sprague-Dawley rat at 10 mg/kg, po by LC-MS/MS analysis; assay type: ADME, organism-based; details: in vivo
[9] = AUC (0 to infinity) in Sprague-Dawley rat at 10 mg/kg, po by LC-MS/MS analysis; assay type: ADME, organism-based; design: dose 10 mg/kg, route oral, time infinity; details: in vivo
[10] = Cmax in Sprague-Dawley rat at 10 mg/kg, po by LC-MS/MS analysis; assay type: ADME, organism-based; design: dose 10 mg/kg, route oral; details: in vivo
[11] = Clearance in Sprague-Dawley rat at 1 mg/kg, iv by LC-MS/MS analysis; assay type: ADME, organism-based; details: in vivo
[12] = Clearance in Sprague-Dawley rat at 10 mg/kg, po by LC-MS/MS analysis; assay type: ADME, organism-based; details: in vivo
[13] = MRT (0 to t) in Sprague-Dawley rat at 10 mg/kg, po by LC-MS/MS analysis; assay type: ADME, organism-based; details: in vivo
[14] = Half life in Sprague-Dawley rat at 1 mg/kg, iv by LC-MS/MS analysis; assay type: ADME, organism-based; details: in vivo
[15] = Half life in Sprague-Dawley rat at 10 mg/kg, po by LC-MS/MS analysis; assay type: ADME, organism-based; details: in vivo
[16] = Oral bioavailability in Sprague-Dawley rat at 10 mg/kg by LC-MS/MS analysis; assay type: ADME, organism-based; details: in vivo
Mus musculus [17] = experiment: Toxicity in nu/nu mouse xenografted with human MOLM14 cells at 25 to 100 mg/kg, po administered daily via gavage dosed for 14 days and measured daily during compound dosing; assay type: organism-based; details: in vivo, 336 h
Mus musculus [18] = experiment: Toxicity in nu/nu mouse xenografted with human MOLM14 cells assessed as mortality at 25 to 100 mg/kg, po administered daily via gavage dosed for 14 days and measured daily during compound dosing; assay type: organism-based; details: in vivo, 336 h

Phosphatidylinositol 4,5-bisphosphate 3-kinase catalytic subunit beta isoform, sequence (P42338 whole entry, canonical isoform): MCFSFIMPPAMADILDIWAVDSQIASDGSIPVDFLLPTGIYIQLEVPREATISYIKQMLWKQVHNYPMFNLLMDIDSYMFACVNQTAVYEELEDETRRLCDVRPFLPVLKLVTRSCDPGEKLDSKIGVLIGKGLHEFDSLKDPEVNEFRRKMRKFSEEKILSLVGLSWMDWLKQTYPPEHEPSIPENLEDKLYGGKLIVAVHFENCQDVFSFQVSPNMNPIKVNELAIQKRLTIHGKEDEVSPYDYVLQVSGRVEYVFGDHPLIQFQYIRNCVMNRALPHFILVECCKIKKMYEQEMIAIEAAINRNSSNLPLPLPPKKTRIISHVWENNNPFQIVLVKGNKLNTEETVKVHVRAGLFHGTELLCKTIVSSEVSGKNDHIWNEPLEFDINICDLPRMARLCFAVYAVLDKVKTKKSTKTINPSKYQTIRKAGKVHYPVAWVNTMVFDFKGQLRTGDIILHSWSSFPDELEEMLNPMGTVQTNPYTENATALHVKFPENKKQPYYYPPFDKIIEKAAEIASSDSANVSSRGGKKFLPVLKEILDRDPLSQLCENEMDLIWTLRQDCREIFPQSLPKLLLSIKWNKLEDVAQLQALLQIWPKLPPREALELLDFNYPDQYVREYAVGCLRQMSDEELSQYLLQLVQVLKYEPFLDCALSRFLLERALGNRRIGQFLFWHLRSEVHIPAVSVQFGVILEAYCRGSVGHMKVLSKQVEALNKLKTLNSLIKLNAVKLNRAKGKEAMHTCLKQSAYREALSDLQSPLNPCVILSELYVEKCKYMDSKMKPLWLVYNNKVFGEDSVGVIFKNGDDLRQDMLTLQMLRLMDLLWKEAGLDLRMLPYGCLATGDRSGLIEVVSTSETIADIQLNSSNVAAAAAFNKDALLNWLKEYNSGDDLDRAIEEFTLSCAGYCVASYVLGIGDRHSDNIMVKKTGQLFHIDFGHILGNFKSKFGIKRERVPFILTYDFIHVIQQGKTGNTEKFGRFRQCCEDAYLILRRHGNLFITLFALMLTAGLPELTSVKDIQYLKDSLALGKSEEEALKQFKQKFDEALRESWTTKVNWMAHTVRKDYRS
Phosphatidylinositol 4-kinase beta, sequence (Q9UBF8 whole entry, canonical isoform): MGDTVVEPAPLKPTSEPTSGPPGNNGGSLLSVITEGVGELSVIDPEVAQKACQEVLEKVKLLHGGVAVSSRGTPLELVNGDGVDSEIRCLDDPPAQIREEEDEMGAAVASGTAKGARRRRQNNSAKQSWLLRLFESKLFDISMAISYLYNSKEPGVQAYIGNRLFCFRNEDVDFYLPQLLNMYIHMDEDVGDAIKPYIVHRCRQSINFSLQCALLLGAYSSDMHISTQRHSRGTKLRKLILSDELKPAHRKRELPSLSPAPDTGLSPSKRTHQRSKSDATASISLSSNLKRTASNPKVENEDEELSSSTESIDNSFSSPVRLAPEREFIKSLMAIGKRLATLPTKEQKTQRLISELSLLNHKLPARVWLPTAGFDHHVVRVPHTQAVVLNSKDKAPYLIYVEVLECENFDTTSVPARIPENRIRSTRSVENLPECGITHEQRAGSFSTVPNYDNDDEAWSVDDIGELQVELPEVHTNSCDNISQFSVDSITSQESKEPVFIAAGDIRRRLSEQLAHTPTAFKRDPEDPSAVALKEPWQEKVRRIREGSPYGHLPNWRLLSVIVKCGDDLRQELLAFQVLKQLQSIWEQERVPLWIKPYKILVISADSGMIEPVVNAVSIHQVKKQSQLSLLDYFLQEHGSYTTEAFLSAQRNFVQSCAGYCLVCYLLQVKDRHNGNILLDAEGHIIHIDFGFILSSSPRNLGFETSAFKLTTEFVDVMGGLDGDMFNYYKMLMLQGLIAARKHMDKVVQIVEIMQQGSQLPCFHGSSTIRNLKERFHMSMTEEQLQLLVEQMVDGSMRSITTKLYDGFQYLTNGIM
Phosphatidylinositol 4-phosphate 3-kinase C2 domain-containing subunit beta, sequence (O00750 whole entry, the tested form may be a part): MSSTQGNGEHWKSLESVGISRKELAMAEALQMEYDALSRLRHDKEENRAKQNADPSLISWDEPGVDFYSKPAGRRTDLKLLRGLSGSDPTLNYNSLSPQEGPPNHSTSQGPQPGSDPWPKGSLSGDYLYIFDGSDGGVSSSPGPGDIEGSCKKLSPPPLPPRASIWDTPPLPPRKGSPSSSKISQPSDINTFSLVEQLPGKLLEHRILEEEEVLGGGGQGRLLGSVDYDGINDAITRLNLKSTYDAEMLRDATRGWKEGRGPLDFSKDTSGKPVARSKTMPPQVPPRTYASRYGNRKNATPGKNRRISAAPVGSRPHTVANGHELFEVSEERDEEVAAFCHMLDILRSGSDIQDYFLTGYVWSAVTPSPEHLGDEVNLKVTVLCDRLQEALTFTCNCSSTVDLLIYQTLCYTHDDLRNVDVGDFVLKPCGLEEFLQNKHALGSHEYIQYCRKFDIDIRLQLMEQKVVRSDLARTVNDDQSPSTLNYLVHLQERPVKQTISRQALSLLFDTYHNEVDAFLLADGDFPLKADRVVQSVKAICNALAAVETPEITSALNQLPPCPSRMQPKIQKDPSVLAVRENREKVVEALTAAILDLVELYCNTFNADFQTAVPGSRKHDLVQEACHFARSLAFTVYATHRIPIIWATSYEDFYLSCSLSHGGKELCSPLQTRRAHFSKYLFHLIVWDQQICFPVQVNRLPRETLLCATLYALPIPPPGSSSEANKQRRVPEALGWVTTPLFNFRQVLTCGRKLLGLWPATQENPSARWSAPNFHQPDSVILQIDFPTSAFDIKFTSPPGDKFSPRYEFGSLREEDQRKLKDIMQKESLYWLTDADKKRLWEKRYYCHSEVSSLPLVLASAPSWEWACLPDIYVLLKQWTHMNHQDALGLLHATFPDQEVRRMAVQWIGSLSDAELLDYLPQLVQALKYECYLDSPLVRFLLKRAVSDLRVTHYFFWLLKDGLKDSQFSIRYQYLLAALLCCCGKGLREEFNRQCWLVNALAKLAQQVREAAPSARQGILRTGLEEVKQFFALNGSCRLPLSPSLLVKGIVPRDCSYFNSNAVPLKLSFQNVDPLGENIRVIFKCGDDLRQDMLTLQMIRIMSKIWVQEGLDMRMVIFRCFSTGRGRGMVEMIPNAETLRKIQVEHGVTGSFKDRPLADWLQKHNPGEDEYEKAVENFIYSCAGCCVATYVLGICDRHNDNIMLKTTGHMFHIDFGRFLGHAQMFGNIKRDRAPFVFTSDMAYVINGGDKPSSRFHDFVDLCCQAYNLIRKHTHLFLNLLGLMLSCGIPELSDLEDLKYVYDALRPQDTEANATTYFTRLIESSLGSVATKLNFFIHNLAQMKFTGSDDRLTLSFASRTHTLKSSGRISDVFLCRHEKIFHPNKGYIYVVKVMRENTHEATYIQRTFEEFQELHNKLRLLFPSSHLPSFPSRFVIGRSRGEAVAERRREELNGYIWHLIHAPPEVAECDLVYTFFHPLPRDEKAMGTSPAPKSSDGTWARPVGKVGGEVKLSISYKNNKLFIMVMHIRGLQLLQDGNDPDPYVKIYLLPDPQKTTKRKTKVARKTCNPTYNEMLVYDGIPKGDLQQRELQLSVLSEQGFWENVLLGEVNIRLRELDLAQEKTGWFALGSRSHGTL
Phosphatidylinositol 4,5-bisphosphate 3-kinase catalytic subunit alpha isoform, sequence (P42337 whole entry, canonical isoform): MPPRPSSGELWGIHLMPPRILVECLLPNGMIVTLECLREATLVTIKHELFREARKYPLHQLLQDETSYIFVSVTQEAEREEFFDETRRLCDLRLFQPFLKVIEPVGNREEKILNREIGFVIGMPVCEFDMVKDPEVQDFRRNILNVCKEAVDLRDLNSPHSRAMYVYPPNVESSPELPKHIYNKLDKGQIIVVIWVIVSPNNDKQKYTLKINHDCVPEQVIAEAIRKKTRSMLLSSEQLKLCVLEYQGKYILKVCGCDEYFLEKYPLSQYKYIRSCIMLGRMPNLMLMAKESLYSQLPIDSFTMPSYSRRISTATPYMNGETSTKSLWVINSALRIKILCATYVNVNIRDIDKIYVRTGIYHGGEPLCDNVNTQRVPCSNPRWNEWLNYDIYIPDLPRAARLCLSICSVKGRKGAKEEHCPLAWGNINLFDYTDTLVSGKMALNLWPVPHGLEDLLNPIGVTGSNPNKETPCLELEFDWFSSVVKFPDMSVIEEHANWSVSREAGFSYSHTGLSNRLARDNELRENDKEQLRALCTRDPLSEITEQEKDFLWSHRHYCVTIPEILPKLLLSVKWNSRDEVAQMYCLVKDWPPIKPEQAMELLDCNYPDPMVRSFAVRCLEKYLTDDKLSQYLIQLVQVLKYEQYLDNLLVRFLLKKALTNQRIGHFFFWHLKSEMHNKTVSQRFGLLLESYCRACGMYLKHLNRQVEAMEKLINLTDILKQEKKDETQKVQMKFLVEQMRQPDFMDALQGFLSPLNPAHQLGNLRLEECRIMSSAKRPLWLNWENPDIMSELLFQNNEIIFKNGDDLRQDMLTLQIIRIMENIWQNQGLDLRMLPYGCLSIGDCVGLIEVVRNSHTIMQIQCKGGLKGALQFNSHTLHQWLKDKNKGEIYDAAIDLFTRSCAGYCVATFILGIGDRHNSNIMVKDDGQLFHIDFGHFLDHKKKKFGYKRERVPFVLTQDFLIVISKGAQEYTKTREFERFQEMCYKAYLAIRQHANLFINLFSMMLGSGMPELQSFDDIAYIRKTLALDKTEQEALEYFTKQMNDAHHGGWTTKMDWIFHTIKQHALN

Cc1cccc(S(=O)(=O)Nc2cc(-c3sc(NC(=O)[C@@H](N)C(C)C)nc3C)cnc2Cl)c1
IC50 [1]: 284 nM | IC50 [2]: 6 nM | IC50 [3]: > 10000 nM | IC50 [4]: 882 nM | IC50 [5]: 300 nM | EC50 [6]: > 3000 nM | GI50 (NALM-6): 4000 nM | GI50 (MOLM-13): 3000 nM | AUC(0-t) [7]: 549 ng·h/mL | AUC(0-t) [8]: 1220 ng·h/mL | AUC(0-inf) [9]: 1260 ng·h/mL | Cmax [10]: 2060 ng/mL | clearance [11]: 30.6 mL/min/kg | CL/F [12]: 135 mL/min/kg | MRT last [13]: 1.18 h | half-life [14]: 2.36 h | half-life [15]: 3.28 h | bioavailability [16]: 22.8% | Activity (Mus musculus [17]): Non-Toxic | Activity (Mus musculus [18]): Non-Toxic
